# Measured values published in patent publication US5728563A, “Cyclic nucleotide phosphodiesterase and a method for production thereof” (Taisho Pharmaceutical Co., Ltd., priority 1993, dated 1998).
# Entries after “also recorded” stand apart in the source; their conditions may differ.
# How the values were obtained:
# Format in all cases: biochemical
# [1] = system: cyclic nucleotide phosphodiesterase (the enzyme of the present invention) isolated from rat cerebral cortex; assay: Effects of inhibitors on the enzymatic activity (two-step assay, cAMP hydrolysis); details: for inhibition compared to PDEI, PDEIII or PDEIV: comparison with the known isozyme that the inhibitor acts on; for IC50: enzymatic activity in the absence of inhibitor made 100%
# Protocol: The activity of the enzyme of the present invention was determined by the two-step assay (Masuoka et al., Biochem. Biophys. Res. Commun., 169, 315-322, 1990).
# Using various inhibitors which are known to inhibit the activity of PDEI, III or IV, the enzymatic activity of the enzyme of the present invention was measured by varying the concentration of these inhibitors.
# (§1) The mixture is reacted at 30° C. Ten minutes after, the reaction mixture is put in a heat bath of 100° C. to terminate the reaction in 5 minutes. That is, the enzyme of the present invention is inactivated by heating at 100° C. A test tube charged with the reaction mixture is then ice-cooled. Next, 50 μg of snake venom, which contains 5'-nucleotidase, is added to and reacted with the reaction mixture at 30° C. for 10 minutes. […] 5'-AMP, which is then with 5'-nucleotidase in snake venom to form [8-^3 H] adenosine. After 4 ml of water is added to this reaction mixture, the mixture is adsorbed onto a column packed with cation exchange resin (AG50 WX4, Bio-Rad). After thoroughly rinsing, the reaction product [8-^3 H] adenosine is eluted with 1.5 ml 3N NH4 OH. The radioactivity of the eluted [8-^3 H] adenosine is measured to determine the enzymatic activity of the present invention.
# The enzymatic activity of the enzyme of the present invention was measured by varying the concentrations of various inhibitors. […] In more detail, during the reaction with the enzyme of the present invention in assaying for the enzymatic activity described in Example, an inhibitor having various concentrations was further added to the reaction mixture to determine the enzymatic activity.
# [2] = system: cyclic nucleotide phosphodiesterase (the enzyme of the present invention) isolated from rat cerebral cortex; assay: Effect of metal ions on the enzymatic activity
# Protocol: as §1
# [3] = system: cyclic nucleotide phosphodiesterase (the enzyme of the present invention) isolated from rat cerebral cortex; assay: Effect of activators (calcium-calmodulin, cGMP) on cAMP hydrolysis; details: 0.4 μg/ml calmodulin plus 0.2 mM calcium chloride versus 2 mM EGTA; or 10 μM cGMP
# Protocol: Effects on the enzyme of the present invention were analyzed by adding 0.4 μg/ml calmodulin purified from bovine brain and 0.2 mM calcium chloride.
# The mixture is reacted at 30° C. Ten minutes after, the reaction mixture is put in a heat bath of 100° C. to terminate the reaction in 5 minutes. That is, the enzyme of the present invention is inactivated by heating at 100° C. A test tube charged with the reaction mixture is then ice-cooled. Next, 50 μg of snake venom, which contains 5'-nucleotidase, is added to and reacted with the reaction mixture at 30° C. for 10 minutes. […] After 4 ml of water is added to this reaction mixture, the mixture is adsorbed onto a column packed with cation exchange resin (AG50 WX4, Bio-Rad). After thoroughly rinsing, the reaction product [8-^3 H] adenosine is eluted with 1.5 ml 3N NH4 OH. The radioactivity of the eluted [8-^3 H] adenosine is measured to determine the enzymatic activity of the present invention.
# [4] = system: cyclic nucleotide phosphodiesterase (the enzyme of the present invention) isolated from rat cerebral cortex; assay: Substrate specificity, Km by double reciprocal plots; details: substrate varied 0.06 μM to 100 μM
SMILES,"inhibition compared to PDEI, PDEIII or PDEIV [1]",IC50 [1],effect as metal cation / cofactor for the enzymatic reaction [2],further results
"CCCCOc1cc(CC2CNC(=O)N2)ccc1OC (centres unmarked) [Ro20-1724, 4-(3-buthoxy-4-methoxybenzyl)-2-imidazolidinone]",less inhibited,> 300 µM,–,–
[Ni+2] [Ni^2+],–,–,no ability as a cofactor,–
[Cu+2] [Cu^2+],–,–,no ability as a cofactor,–
COc1ccc(C2CNC(=O)C2)cc1OC1CCCC1 (centres unmarked) [rolipram],less inhibited,> 300 µM,–,–
[Co+2] [Co^2+],–,–,–,concentrations with inhibitory effect [2]: above 100 μM; concentrations with stimulatory effect [2]: less than 100 μM
[Mn+2] [Manganese],–,–,relatively stimulatory effect,–
[Ba+2] [Ba^2+],–,–,no ability as a cofactor,–
[Ca+2] [Ca^2+],–,–,no ability as a cofactor,–
O=C1CCc2cc(OCCCCc3nnnn3C3CCCCC3)ccc2N1 [cilostazol],not inhibited,> 300 µM,–,–
COc1ccc(Cc2nccc3cc(OC)c(OC)cc23)cc1OC [papaverine],–,–,–,"Ki ([1]; Dixon plots, varying cAMP and papaverine concentrations, read-out: inhibition constant (Ki value)): 0.036 µM"
"CC(=O)Nc1ccc(-c2c[nH]c(=O)cn2)cc1 [SK&F94120, 5-(4-acetamidophenyl)pyrazin-1H-one]",not inhibited,> 300 µM,–,–
[Zn+2] [Zn^2+],–,–,no ability as a cofactor,–
"Nc1nc2c(ncn2[C@@H]2O[C@@H]3COP(=O)(O)O[C@H]3[C@H]2O)c(=O)[nH]1 [cGMP, cyclic guanosine 3',5'-monophosphate]",–,–,–,activation of the enzyme / sensitivity of the enzymatic activity [3]: insensitive; also recorded: not activated; Km [4]: 1.78 µM
"[Cl-].[Cl-].[Mg+2] [Magnesium, magnesium chloride]",–,–,most efficient metal cation,concentration at which the enzyme was activated [2]: 1 µM; concentration at which the maximum effect/activity was observed [2]: over 5 mM
COC(=O)C1=C(C)NC(C)=C(C(=O)OCCN(C)Cc2ccccc2)C1c1cccc([N+](=O)[O-])c1 (centres unmarked) [nicardipine],less inhibited,> 300 µM,–,IC50 ([1]; unit inferred): > 300 µM
"CC(C)Cn1c(=O)n(C)c(=O)c2[nH]cnc21 [IBMX, 3-isobutyl-1-methylxanthine]",–,26.5 ± 2.5 µM,–,–
